Test results as given in patent EP3436024B1, “3-BETA-METHOXY-PREG FOR USE IN THE TREATMENT OF TREATMENT RESISTANT DEPRESSION” (Mapreg, priority 2016, dated 2017).

What was measured:
Serotoninergic 5-HT2B = Serotoninergic 5-HT2B (Homo sapiens, UniProt P41595); test: CNS receptor binding assay, 5-HT2B; details: MAP4343 10 µM; [^125I] (±) DOI; Human recombinant (CHO cells); read-out: % Inhibition of control specific binding
Procedure: (§1) MAP4343 has been screened for in vitro affinity to 80 different CNS neurotransmitters receptors using various validated binding assays.
(§2) Table 4. In vitro affinity of MAP4343 (10 µM) for CNS neurotransmitter receptors associated with side effects and/or abuse liability. Data are the average of two individual assays for each receptor and are expressed as % inhibition of the control specific binding of the reference compound. Results showing an inhibition higher than 50% are considered to represent significant effects of the test compound.

[1] = target: T1, human progesterone receptor(PR) (Homo sapiens, UniProt P06401); test: Test of progesterone receptor agonist activity (MMTV-luciferase transactivation in transfected HEK293T cells); assay type: cell-based; details: 24 hours, increasing amounts, Figure 1
T1 construct: expressed in transfected cells; host or cells: HEK293T
T1 sequence (P06401 1-933): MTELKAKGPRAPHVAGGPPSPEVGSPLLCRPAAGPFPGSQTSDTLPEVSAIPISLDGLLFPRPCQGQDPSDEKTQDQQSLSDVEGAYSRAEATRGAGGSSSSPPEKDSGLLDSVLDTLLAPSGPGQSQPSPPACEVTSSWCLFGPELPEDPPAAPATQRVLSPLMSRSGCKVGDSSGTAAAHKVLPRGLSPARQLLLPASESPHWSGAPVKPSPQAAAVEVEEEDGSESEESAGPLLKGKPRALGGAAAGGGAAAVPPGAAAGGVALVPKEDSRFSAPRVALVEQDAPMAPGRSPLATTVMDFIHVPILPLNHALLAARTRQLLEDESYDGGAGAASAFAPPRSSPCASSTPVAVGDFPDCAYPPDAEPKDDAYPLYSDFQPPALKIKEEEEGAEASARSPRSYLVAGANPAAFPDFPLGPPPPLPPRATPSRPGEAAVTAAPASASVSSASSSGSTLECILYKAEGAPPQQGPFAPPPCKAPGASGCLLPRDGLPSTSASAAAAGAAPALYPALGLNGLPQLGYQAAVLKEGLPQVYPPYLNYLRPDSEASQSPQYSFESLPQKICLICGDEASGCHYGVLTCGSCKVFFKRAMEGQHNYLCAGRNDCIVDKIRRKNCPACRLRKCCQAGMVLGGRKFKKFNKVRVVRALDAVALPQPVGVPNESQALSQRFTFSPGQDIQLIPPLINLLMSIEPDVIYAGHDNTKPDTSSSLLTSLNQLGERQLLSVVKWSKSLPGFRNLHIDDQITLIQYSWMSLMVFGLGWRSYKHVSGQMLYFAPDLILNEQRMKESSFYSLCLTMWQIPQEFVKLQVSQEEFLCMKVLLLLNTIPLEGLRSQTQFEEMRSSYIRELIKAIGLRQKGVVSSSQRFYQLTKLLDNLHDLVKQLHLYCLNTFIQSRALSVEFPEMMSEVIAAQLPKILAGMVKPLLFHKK
Procedure: (§3) The main experimental setting used is the following: HEK293T cells were transiently transfected, using calcium phosphate precipitation technology, with expression vectors pSG5hPR (which permits expression of human progesterone receptor(PR)), pFC31-luc (contains the luciferase gene under the control of the MMTV promoter, which is in turn activated by binding of a progestin to progesterone receptor) and pcbetagal (which permits expression of betagalactosidase), and cultured during 24 hours with increasing amounts of various compositions: • 1. […] Test of progesterone receptor […] activity: transfected cells were cultured with progesterone (1 nM) and increasing amounts of RU486 (a well-known progesterone receptor antagonist) or 3-methoxy-pregnenolone. With this setting, a compound with progesterone receptor antagonist activity competes with progesterone for the occupation of progesterone receptor and results in a progressive loss of transactivation activity when the amount of this compound is increased compared to progesterone.

Serotoninergic 5-HT2C = Serotoninergic 5-HT2C (Homo sapiens, UniProt P28335); test: CNS receptor binding assay, 5-HT2C; details: MAP4343 10 µM; [^3H] mesulergine; Human recombinant (CHO cells); read-out: % Inhibition of control specific binding
Serotoninergic 5-HT2C, sequence (P28335 33-458): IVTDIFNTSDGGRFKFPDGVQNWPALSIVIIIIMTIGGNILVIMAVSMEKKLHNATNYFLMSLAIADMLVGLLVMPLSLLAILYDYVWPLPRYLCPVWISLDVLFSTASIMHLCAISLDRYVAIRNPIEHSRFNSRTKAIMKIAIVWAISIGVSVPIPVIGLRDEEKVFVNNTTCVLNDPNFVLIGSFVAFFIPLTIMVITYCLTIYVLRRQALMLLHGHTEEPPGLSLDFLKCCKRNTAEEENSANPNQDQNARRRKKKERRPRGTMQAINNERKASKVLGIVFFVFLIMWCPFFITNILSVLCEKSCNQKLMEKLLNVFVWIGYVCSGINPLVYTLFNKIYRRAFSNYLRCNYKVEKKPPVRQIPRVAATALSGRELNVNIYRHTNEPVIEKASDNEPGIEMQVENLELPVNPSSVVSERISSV
Procedure: as §1, §2

Dopaminergic D1 = Dopaminergic D1 (Homo sapiens, UniProt P21728); test: CNS receptor binding assay, D1; details: MAP4343 10 µM; [^3H] SCH 23390; Human recombinant (CHO cells); read-out: % Inhibition of control specific binding
Dopaminergic D1, sequence (P21728 whole entry): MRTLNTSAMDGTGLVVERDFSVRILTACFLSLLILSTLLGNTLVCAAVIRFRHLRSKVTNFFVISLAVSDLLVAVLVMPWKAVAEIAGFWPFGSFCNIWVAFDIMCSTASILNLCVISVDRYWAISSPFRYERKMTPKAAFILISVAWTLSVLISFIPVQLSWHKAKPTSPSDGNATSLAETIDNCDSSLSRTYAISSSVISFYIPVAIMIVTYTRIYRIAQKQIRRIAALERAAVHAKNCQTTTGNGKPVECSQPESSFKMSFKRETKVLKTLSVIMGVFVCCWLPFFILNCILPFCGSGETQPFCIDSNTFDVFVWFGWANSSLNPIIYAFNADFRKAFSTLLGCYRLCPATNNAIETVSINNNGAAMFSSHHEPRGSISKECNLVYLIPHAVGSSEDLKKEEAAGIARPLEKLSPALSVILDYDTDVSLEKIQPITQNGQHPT
Procedure: as §1, §2

Serotoninergic 5-HT3 = Serotoninergic 5-HT3 (Homo sapiens, UniProt P46098); test: CNS receptor binding assay, 5-HT3; details: MAP4343 10 µM; [^3H] BRL 43694; Human recombinant (CHO cells); read-out: % Inhibition of control specific binding
Serotoninergic 5-HT3, sequence (P46098 24-478): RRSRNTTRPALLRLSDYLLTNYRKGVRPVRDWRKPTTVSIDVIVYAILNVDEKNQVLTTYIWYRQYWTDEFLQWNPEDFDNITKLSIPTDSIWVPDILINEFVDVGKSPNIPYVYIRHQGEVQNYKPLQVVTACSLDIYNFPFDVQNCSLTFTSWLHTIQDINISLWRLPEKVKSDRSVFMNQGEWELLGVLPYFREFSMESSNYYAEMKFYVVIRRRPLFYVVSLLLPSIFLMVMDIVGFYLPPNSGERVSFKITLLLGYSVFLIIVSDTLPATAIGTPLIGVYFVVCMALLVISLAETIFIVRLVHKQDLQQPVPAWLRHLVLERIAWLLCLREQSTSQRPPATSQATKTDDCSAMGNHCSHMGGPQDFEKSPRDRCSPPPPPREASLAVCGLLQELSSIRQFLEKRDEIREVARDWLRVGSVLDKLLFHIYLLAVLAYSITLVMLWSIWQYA
Procedure: as §1, §2

[2] = target: T1, human progesterone receptor(PR); test: Test of progesterone receptor antagonist activity (MMTV-luciferase transactivation in transfected HEK293T cells, with progesterone 1 nM); assay type: cell-based; details: 24 hours, progesterone 1 nM plus increasing amounts, Figure 2
Procedure: as §3

[3] = target: purified tubulin and MAP2 (Homo sapiens, UniProt P11137); test: Microtubule polymerization activity (optical density at 345 nm); assay type: biochemical; details: increase in optical density at 345 nm, 37 °C, in the presence of GTP
purified tubulin and MAP2, sequence (P11137 whole entry): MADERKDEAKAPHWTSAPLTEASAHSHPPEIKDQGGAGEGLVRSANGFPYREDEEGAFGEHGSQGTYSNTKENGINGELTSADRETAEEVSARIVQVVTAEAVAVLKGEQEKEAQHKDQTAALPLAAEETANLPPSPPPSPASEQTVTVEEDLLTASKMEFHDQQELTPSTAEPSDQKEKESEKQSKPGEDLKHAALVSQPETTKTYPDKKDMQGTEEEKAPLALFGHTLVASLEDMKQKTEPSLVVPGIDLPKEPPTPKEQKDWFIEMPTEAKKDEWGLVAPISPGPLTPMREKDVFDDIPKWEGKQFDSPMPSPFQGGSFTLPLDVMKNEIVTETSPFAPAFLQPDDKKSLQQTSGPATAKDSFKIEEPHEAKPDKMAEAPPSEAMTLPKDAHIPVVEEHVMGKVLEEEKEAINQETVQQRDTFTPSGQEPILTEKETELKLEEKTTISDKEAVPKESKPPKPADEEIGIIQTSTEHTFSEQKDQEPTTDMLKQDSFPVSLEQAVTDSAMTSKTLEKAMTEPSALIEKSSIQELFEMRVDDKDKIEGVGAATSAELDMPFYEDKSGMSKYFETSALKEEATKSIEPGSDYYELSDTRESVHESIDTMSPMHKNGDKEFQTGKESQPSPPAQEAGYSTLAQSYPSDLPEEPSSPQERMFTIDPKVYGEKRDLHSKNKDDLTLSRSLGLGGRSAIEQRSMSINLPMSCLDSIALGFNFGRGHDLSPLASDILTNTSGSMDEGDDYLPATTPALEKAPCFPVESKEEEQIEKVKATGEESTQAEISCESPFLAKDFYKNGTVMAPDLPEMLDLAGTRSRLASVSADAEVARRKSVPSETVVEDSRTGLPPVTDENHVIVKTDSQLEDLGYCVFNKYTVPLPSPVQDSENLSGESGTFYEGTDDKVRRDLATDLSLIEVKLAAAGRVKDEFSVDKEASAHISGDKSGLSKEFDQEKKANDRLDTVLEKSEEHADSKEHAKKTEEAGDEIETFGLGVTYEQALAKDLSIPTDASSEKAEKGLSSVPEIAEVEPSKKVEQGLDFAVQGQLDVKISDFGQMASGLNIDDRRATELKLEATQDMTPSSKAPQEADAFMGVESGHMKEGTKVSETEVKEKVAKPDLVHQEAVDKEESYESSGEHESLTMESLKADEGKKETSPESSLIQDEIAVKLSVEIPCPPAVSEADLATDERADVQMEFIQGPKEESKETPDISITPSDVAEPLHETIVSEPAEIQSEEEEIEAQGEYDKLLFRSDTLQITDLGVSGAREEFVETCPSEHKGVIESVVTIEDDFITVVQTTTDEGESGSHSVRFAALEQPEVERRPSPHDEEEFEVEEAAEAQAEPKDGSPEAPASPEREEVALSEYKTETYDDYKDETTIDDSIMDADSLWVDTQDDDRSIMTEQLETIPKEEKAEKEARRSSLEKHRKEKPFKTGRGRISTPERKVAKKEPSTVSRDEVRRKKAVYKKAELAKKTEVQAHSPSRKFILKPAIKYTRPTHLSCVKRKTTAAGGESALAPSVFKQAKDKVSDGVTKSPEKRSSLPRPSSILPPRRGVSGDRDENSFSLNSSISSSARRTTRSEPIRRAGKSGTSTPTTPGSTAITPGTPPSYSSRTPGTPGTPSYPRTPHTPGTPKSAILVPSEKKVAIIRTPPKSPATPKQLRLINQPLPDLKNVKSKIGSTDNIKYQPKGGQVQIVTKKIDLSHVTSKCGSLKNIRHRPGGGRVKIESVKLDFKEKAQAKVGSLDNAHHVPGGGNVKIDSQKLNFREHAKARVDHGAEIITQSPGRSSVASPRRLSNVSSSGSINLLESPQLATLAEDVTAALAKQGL
Procedure: Activity is measured by the increase in optical density at 345 nm of a mixture of purified tubulin and MAP2, incubated at 37 °C in the presence of GTP.

Androgen Receptor (AR) = target: T2, Androgen Receptor (AR) (Rattus norvegicus, UniProt P15207); test: Radioligand binding assay, steroid hormone receptor AR; details: MAP4343 10 µM; 1.5 nM [^3H] Mibolerone; Rat recombinant E. coli
T2 construct: host or cells: E. coli
T2 sequence (P15207 615-902 limits assumed): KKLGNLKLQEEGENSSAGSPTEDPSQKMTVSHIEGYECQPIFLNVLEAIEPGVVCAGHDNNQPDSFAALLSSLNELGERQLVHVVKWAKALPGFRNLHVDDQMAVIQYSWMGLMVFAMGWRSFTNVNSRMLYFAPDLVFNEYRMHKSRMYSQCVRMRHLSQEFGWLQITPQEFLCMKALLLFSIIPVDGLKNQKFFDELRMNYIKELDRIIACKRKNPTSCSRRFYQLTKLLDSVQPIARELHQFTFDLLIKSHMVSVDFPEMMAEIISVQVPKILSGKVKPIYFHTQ
Procedure: Binding affinity of 3β-methoxy-PREG (MAP4343) for receptors of steroid hormones was evaluated using radioligand binding assays.
Table 3. Affinity of MAP4343 (10 µM) for steroid hormones receptors measured by radioligand binding assays. […] None of the results met significance criteria at concentrations used.

[4] = target: Serotoninergic Transporter (Homo sapiens, UniProt P31645); test: CNS receptor binding assay, serotoninergic transporter; details: MAP4343 10 µM; [^3H] imipramine; Human recombinant (CHO cells); read-out: % Inhibition of control specific binding
Serotoninergic Transporter, sequence (P31645 whole entry): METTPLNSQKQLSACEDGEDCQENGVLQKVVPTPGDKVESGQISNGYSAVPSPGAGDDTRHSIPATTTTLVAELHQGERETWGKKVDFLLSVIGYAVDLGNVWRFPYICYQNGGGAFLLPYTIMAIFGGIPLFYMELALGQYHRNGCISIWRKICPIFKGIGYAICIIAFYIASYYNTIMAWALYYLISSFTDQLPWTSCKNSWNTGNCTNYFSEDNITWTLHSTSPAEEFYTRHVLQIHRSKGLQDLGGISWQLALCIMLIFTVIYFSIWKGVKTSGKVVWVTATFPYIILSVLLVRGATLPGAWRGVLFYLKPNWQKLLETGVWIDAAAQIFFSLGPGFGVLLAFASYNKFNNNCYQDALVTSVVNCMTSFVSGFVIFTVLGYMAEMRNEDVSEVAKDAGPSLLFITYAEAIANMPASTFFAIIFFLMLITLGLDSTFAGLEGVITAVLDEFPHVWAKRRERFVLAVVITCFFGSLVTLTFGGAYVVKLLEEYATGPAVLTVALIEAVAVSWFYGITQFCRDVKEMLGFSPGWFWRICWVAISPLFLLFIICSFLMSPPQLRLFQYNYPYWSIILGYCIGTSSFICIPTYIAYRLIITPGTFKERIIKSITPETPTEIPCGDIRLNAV
Procedure: as §1, §2

Serotoninergic 5-HT2B, sequence (P41595 whole entry): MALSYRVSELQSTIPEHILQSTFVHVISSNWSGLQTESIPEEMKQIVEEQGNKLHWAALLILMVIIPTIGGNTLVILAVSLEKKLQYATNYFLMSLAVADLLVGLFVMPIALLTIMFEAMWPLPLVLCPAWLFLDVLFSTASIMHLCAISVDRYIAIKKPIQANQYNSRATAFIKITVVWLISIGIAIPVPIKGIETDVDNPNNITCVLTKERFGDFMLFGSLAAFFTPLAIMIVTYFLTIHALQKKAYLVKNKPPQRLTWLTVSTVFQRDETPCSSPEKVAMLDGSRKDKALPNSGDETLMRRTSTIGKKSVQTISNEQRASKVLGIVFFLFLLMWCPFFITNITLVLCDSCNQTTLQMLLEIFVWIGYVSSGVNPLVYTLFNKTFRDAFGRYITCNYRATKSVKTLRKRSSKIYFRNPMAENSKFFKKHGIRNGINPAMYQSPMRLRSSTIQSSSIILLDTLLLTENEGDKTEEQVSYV

Structure (SMILES): CO[C@H]1CC[C@@]2(C)C(=CC[C@H]3[C@@H]4CC[C@H](C(C)=O)[C@@]4(C)CC[C@@H]32)C1 (stereo in doubt) [MAP4343, 3β-methoxy-pregna-5-ene-20-one]
- inhibition at 10 µM (Serotoninergic 5-HT2B): -4%
- progesterone receptor agonist activity (transactivation activity leading to the expression of luciferase) [1]: does not permit such a transactivation activity
- inhibition at 10 µM (Serotoninergic 5-HT2C): 7%
- inhibition at 10 µM (Dopaminergic D1): 2%
- inhibition at 10 µM (Serotoninergic 5-HT3): 10%
- progesterone receptor antagonist activity [2]: weak progesterone receptor antagonist
- Activity [3]: 100% of PREG
- % inhibition (Androgen Receptor (AR)): 18%
- inhibition at 10 µM (Androgen Receptor (AR)): < 25%
- inhibition at 10 µM [4]: 3%
